Results on ten molecules are retold here after patent publication US20240109917A1 (ACTELION PHARMACEUTICALS LTD, priority 2020, published 2024).

Read-outs that look alike come from different tables or passages of the source. Where only a bound is given, the exact number is not on record here.

Experiment [1] deals with His6-TEV-PDGFRβ (557-1016) (Homo sapiens (Human), UniProt P09619). The experiment is described as follows: PDGFRβ HTRF Assay. It is filed as biochemical. The settings on record: read-out: PDGFR HTRF IC50. A digest of the protocol: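 HTRF KinEASE-TK readout (665/620 nm ratio) of TK-biotin substrate phosphorylation by His-tagged PDGFRβ kinase domain. Enzyme and inhibitor preincubated 30 min, then ATP/substrate added for 3 h at room temperature before 60 min EDTA quench/detection.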

For experiment [2], the target named is PDGFRβ (Rattus norvegicus (Rat), UniProt Q05030). The experiment can be described thus: PDGFRβ Cellular Assay (PDGFRb P-Y751 HTRF in A10 cells stimulated with PDGF-BB). The format is cell-based. An outline of the steps:
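Phospho-Y751 PDGFRβ was measured by HTRF in lysates of A10 rat cells. Cells received compound for 3 hours before PDGF-BB stimulation (100 ng/mL working stock).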

Sequence of PDGFRβ (Q05030 32-1097): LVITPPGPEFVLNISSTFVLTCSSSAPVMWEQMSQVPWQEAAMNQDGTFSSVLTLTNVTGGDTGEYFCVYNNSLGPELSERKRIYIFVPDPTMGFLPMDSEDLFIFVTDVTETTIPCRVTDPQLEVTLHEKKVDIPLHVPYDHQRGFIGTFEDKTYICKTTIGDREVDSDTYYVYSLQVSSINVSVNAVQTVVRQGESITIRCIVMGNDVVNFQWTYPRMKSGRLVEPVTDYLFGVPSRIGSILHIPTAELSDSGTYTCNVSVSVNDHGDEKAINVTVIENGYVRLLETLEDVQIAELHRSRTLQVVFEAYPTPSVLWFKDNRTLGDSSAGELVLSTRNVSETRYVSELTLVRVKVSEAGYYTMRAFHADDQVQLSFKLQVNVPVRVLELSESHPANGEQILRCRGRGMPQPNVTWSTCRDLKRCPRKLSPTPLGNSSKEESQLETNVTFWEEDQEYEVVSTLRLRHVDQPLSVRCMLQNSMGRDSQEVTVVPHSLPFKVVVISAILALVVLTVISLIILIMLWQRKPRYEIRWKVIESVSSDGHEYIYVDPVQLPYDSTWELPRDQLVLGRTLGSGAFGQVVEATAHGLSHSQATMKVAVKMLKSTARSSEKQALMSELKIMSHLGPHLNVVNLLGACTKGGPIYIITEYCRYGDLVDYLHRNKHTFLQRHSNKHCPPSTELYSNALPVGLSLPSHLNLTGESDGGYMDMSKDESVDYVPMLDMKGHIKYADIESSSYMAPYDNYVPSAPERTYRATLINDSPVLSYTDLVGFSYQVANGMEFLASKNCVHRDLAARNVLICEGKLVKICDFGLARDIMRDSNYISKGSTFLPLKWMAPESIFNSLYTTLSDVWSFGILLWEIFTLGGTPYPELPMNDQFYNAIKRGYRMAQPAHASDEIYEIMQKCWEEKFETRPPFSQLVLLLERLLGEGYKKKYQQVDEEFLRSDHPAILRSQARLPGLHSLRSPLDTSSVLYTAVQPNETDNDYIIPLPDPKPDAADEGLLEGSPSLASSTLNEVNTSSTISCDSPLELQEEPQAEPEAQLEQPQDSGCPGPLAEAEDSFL
Sequence of His6-TEV-PDGFRβ (557-1016) (P09619 557-1016): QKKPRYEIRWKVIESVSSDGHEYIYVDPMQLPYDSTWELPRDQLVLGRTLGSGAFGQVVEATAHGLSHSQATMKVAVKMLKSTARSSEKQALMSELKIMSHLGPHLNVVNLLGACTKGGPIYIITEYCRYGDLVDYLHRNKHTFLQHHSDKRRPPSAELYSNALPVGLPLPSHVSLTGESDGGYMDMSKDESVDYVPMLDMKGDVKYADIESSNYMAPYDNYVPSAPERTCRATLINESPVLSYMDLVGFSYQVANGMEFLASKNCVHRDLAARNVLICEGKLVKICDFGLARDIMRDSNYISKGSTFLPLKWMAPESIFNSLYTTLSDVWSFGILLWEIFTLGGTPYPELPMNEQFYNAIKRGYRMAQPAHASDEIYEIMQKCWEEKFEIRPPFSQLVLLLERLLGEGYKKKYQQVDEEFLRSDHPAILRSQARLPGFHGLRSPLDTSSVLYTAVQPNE

`Cc1ncc(NC(=O)CNC2CCCC2)cc1NC(=O)c1cnn2cc(-c3cnn4c3OCCC4)sc12` [Example 421, N-(5-(2-(cyclopentylamino)acetamido)-2-methylpyridin-3-yl)-2-(6,7-dihydro-5H-pyrazolo[5,1-b][1,3]oxazin-3-yl)pyrazolo[5,1-b]thiazole-7-carboxamide]: the values for the half-inhibitory concentration (IC50) in experiment [1] and in experiment [2] (read-out: PDGFR Cellular IC50) were 0.2 nM and 6.2 nM, respectively.
For `Cc1ncc(NC(=O)CNC2CCCC2)cc1NC(=O)c1cnn2cc(-c3cnn4c3CCC4)sc12` [Example 422, N-(5-(2-(cyclopentylamino)acetamido)-2-methylpyridin-3-yl)-2-(5,6-dihydro-4H-pyrrolo[1,2-b]pyrazol-3-yl)pyrazolo[5,1-b]thiazole-7-carboxamide], the concentration for half-maximal inhibition (IC50) (usually the concentration that inhibits the measured activity by half) in experiment [1] was found to be 0.2 nM; in experiment [2] (read-out: PDGFR Cellular IC50), 2.6 nM.
For `Cc1ncc(NC(=O)CN2CC3(CCCCO3)C2)cc1NC(=O)c1cnn2cc(-c3cnn4c3OCCC4)sc12` [Example 423, N-(5-(2-(5-oxa-2-azaspiro[3.5]nonan-2-yl)acetamido)-2-methylpyridin-3-yl)-2-(6,7-dihydro-5H-pyrazolo[5,1-b][1,3]oxazin-3-yl)pyrazolo[5,1-b]thiazole-7-carboxamide] the same measures were 0.4 nM and 15.8 nM.
With `Cc1ncc(NC(=O)CN2CC3(CCCCO3)C2)cc1NC(=O)c1cnn2cc(-c3cnn4c3CCC4)sc12` [Example 424, N-(5-(2-(5-oxa-2-azaspiro[3.5]nonan-2-yl)acetamido)-2-methylpyridin-3-yl)-2-(5,6-dihydro-4H-pyrrolo[1,2-b]pyrazol-3-yl)pyrazolo[5,1-b]thiazole-7-carboxamide], the concentration for half-maximal inhibition (IC50) worked out at 0.3 nM in experiment [1] and 6.8 nM in experiment [2] (read-out: PDGFR Cellular IC50).
For `Cc1ncc(NC(=O)CN2CC(C)(C)C2)cc1NC(=O)c1cnn2cc(-c3c(C)nn(C4COC4)c3C)sc12` [Example 425, 2-(3,5-dimethyl-1-(oxetan-3-yl)-1H-pyrazol-4-yl)-N-(5-(2-(3,3-dimethylazetidin-1-yl)acetamido)-2-methylpyridin-3-yl)pyrazolo[5,1-b]thiazole-7-carboxamide], the half-inhibitory concentration (IC50) in experiment [1] worked out at 0.7 nM; in experiment [2] (PDGFR Cellular IC50), 11.7 nM.
For the molecule `Cc1ncc(NC(=O)CC2CNC2)cc1NC(=O)c1cnn2cc(-c3cnn4c3CCC4)sc12` [Example 426, N-(5-(2-(azetidin-3-yl)acetamido)-2-methylpyridin-3-yl)-2-(5,6-dihydro-4H-pyrrolo[1,2-b]pyrazol-3-yl)pyrazolo[5,1-b]thiazole-7-carboxamide], the IC50 in experiment [1] is 11.5 nM; in experiment [2] (read-out: PDGFR Cellular IC50) it was over 2000 nM.
In the same order, the values of `Cc1ncc(NC(=O)CC2CN(C)C2)cc1NC(=O)c1cnn2cc(-c3cnn4c3CCC4)sc12` [Example 427, 2-(5,6-dihydro-4H-pyrrolo[1,2-b]pyrazol-3-yl)-N-(2-methyl-5-(2-(1-methylazetidin-3-yl)acetamido)pyridin-3-yl)pyrazolo[5,1-b]thiazole-7-carboxamide] are 2.1 nM and over 2000 nM.
For `Cc1ncc(NC(=O)CN2CC(C)(C)C2)cc1NC(=O)c1cnn2cc(-c3cnn(C(F)F)c3)sc12` [Example 428, 2-(1-(difluoromethyl)-1H-pyrazol-4-yl)-N-(5-(2-(3,3-dimethylazetidin-1-yl)acetamido)-2-methylpyridin-3-yl)pyrazolo[5,1-b]thiazole-7-carboxamide] the same measures were 0.8 nM and 7.9 nM.
In the case of `Cc1ncc(NC(=O)CN2CC(C)(C)C2)cc1NC(=O)c1cnn2cc(-c3cncnc3)sc12` [Example 429, N-(5-(2-(3,3-dimethylazetidin-1-yl)acetamido)-2-methylpyridin-3-yl)-2-(pyrimidin-5-yl)pyrazolo[5,1-b]thiazole-7-carboxamide], the IC50 in experiment [1] is 6.3 nM; in experiment [2] (read-out: PDGFR Cellular IC50) it was 30.9 nM.
For the molecule `Cc1ncc(NC(=O)CN2CC(C)(C)C2)cc1NC(=O)c1cnn2cc(-c3cn(C)nc3C)sc12` [Example 430, 2-(1,3-Dimethyl-1H-pyrazol-4-yl)-N-(5-(2-(3,3-dimethylazetidin-1-yl)acetamido)-2-methylpyridin-3-yl)pyrazolo[5,1-b]thiazole-7-carboxamide], the results for the IC50 in experiment [1] and in experiment [2] (read-out: PDGFR Cellular IC50) were 0.2 nM and 1 nM, respectively.
